Active and inactive are the calls of the source. No cut-off for these calls is given here.
What was measured:
[1] = In vitro photodynamic activity in n-heptane/0.1 M AOT/water micelles assessed as singlet oxygen production by measuring photodegradation rate of DPBF after irradiation by absorption spectra analysis
[2] = In vitro photodynamic activity in DMF assessed as singlet oxygen production by measuring photodegradation rate of DPBF after irradiation by absorption spectra analysis
[3] = In vitro photodynamic activity in DMF assessed as reactive oxygen species production by measuring photo-oxidation rate of L-tryptophan after irradiation by absorption spectra analysis
[4] = In vitro photodynamic activity in DMF assessed as singlet oxygen production by measuring decrease in DPBF level after irradiation by absorption spectra analysis; conditions: TDE = time-dependent effect
[5] = In vitro photodynamic activity in DMF/5% water assessed as reactive oxygen species production by measuring photo-oxidation rate of L-tryptophan after irradiation by absorption spectra analysis
[6] = In vitro photodynamic activity in DMF/5% water assessed as reactive oxygen species production by measuring photo-oxidation rate of L-tryptophan after irradiation in presence of DABCO by absorption spectra analysis
[7] = In vitro photodynamic activity in DMF/5% water assessed as reactive oxygen species production by measuring photo-oxidation rate of L-tryptophan after irradiation in presence of D-mannitol by absorption spectra analysis
[8] = In vitro photodynamic activity in DMF/5% water assessed as singlet oxygen production by measuring photo-oxidation rate of DPBF after irradiation by absorption spectra analysis
[9] = In vitro photodynamic activity in DMF/5% water assessed as singlet oxygen production by measuring photo-oxidation rate of DPBF after irradiation in presence of 10 mM potassium iodide by absorption spectra analysis
[10] = In vitro photodynamic activity in DMF/5% water assessed as singlet oxygen production by measuring photo-oxidation rate of DPBF after irradiation in presence of 50 mM potassium iodide by absorption spectra analysis
[11] = In vitro photodynamic activity in DMF/10% water assessed as reactive oxygen species production by measuring photo-oxidation rate of L-tryptophan after irradiation by absorption spectra analysis
[12] = In vitro photodynamic activity in DMF/10% water assessed as reactive oxygen species production by measuring photo-oxidation rate of L-tryptophan after irradiation in presence of 50 mM potassium iodide by absorption spectra analysis
[13] = In vitro photodynamic activity in DMF/5% water assessed as iodine production at 1 uM irradiated with visible light for 5 to 30 mins under aerobic condition in presence of 10 mM potassium iodide by UV-visible spectra analysis
[14] = In vitro photodynamic activity in DMF/5% water assessed as iodine production at 1 uM irradiated with visible light for 5 to 30 mins under argon condition in presence of 10 mM potassium iodide by UV-visible spectra analysis
[15] = tested on: Staphylococcus aureus; test: Dark toxicity against Staphylococcus aureus ATCC 25923 assessed as cell viability at 1 uM measured after 30 mins by UV-visible spectroscopic method; conditions: 0.5 h
[16] = tested on: Staphylococcus aureus; test: Dark toxicity against Staphylococcus aureus ATCC 25923 assessed as cell viability at 1 uM in presence of 10 mM potassium iodide measured after 30 mins by UV-visible spectroscopic method; conditions: 0.5 h
[17] = tested on: Escherichia coli; test: Dark toxicity against Escherichia coli EC7 assessed as cell viability at 5 uM measured after 30 mins by UV-visible spectroscopic method; conditions: 0.5 h
[18] = tested on: Candida albicans; test: Dark toxicity against Candida albicans PC31 assessed as cell viability at 5 uM measured after 30 mins by UV-visible spectroscopic method; conditions: 0.5 h
[19] = tested on: Escherichia coli; test: Dark toxicity against Escherichia coli EC7 assessed as cell viability at 5 uM in presence of 10 mM potassium iodide measured after 30 mins by UV-visible spectroscopic method; conditions: 0.5 h
[20] = tested on: Candida albicans; test: Dark toxicity against Candida albicans PC31 assessed as cell viability at 5 uM in presence of 10 mM potassium iodide measured after 30 mins by UV-visible spectroscopic method; conditions: 0.5 h
[21] = tested on: Staphylococcus aureus; test: Antibacterial activity against Staphylococcus aureus ATCC 25923 assessed as reduction in cell survival at 1 uM irradiated with visible light for 5 mins by UV-visible spectroscopic method; format: functional
[22] = tested on: Staphylococcus aureus; test: Antibacterial activity against Staphylococcus aureus ATCC 25923 assessed as reduction in cell survival at 1 uM irradiated with visible light for 5 mins in presence of 10 mM potassium iodide by UV-visible spectroscopic method; format: functional
[23] = tested on: Escherichia coli; test: Antibacterial activity against Escherichia coli EC7 assessed as reduction in cell survival at 5 uM irradiated with visible light for 15 mins by UV-visible spectroscopic method; format: functional
[24] = tested on: Escherichia coli; test: Antibacterial activity against Escherichia coli EC7 assessed as reduction in cell survival at 5 uM irradiated with visible light for 15 mins in presence of 10 mM potassium iodide by UV-visible spectroscopic method; format: functional
[25] = tested on: Candida albicans; test: Anti-fungal activity against Candida albicans PC31 assessed as reduction in cell survival at 5 uM irradiated with visible light for 30 mins by UV-visible spectroscopic method; format: functional
[26] = tested on: Candida albicans; test: Anti-fungal activity against Candida albicans PC31 assessed as reduction in cell survival at 5 uM irradiated with visible light for 30 mins in presence of 10 mM potassium iodide by UV-visible spectroscopic method; format: functional
[27] = Ratio of rate constant for induction of singlet oxygen production in DMF assessed as photodegradation rate of DPBF to rate constant for induction of reactive oxygen species production in DMF assessed as photodegradation rate of L-tryptophan
[28] = In vitro photodynamic activity in DMF/5% water assessed as iodine production at 1 uM under dark condition in presence of 10 mM potassium iodide by UV-visible spectra analysis

SMILES | K [1] | K [2] | K [3] | Activity [4] | K [5] | K [6] | K [7] | K [8] | K [9] | K [10] | K [11] | K [12] | Activity [13] | Activity [14] | Activity [15] | Activity [16] | Activity [17] | Activity [18] | Activity [19] | Activity [20] | also measured
C[N+](C)(C)CCCOc1ccc(C2=C3C=CC=[N+]3[B-](F)(F)n3cccc32)cc1 | 1.25 ×10⁻⁴ /s | 4.15 ×10⁻⁵ /s | 3.44 ×10⁻⁴ /s | Tde | 7.86 ×10⁻⁵ /s | 3 ×10⁻⁵ /s | 1.56 ×10⁻⁵ /s | 5.81 ×10⁻⁵ /s | 2.79 ×10⁻⁵ /s | 0.64 ×10⁻⁵ /s | 2.79 ×10⁻⁵ /s | 9.55 ×10⁻⁵ /s | Active | inactive | Non-Toxic | Non-Toxic | Non-Toxic | Non-Toxic | Non-Toxic | Non-Toxic | Activity [21]: >5 deltalog10CFU/ml; Activity [22]: Active; Activity [23]: 2.5 deltalog10CFU/ml; Activity [24]: Active; Activity [25]: 0.9 deltalog10CFU/ml; Activity [26]: Active; Ratio [27]: 8.3; Activity [28]: inactive
CC1=CC(C)=[N+]2C1=C(c1ccc([N+](C)(C)C)cc1)c1c(C)cc(C)n1[B-]2(F)F | 1.95 ×10⁻⁴ /s | 9.51 ×10⁻⁵ /s | 3.06 ×10⁻⁴ /s | Tde | 4.75 ×10⁻⁵ /s | 2.98 ×10⁻⁵ /s | 1.41 ×10⁻⁵ /s | 1.8 ×10⁻⁴ /s | 1.58 ×10⁻⁴ /s | 1.02 ×10⁻⁴ /s | 2.13 ×10⁻⁵ /s | 4.42 ×10⁻⁵ /s | Active | inactive | Non-Toxic | Non-Toxic | Non-Toxic | Non-Toxic | Non-Toxic | Non-Toxic | Activity [21]: >5 deltalog10CFU/ml; Activity [22]: Active; Activity [23]: 2.5 deltalog10CFU/ml; Activity [24]: Active; Activity [25]: 3.7 deltalog10CFU/ml; Activity [26]: Active; Ratio [27]: 3.2; Activity [28]: inactive

Reference: ChEMBL document CHEMBL3992490, “Synthesis, spectroscopic properties and photodynamic activity of two cationic BODIPY derivatives with application in the photoinactivation of microorganisms” (Eur J Med Chem, 2017)
